Assay results reported in article PMC7867136, “Anti-Infective and Anti-Inflammatory Mode of Action of Peptide 19-2.5” (International Journal of Molecular Sciences, 2021).

System: Salmonella minnesota strain R60 bacteria on human mononuclear cells
Assay: TNFα secretion by human mononuclear cells exposed to whole bacteria
Type: cell-based
Details: 10^6/ml Salmonella minnesota R60; antibiotics alone, or Pep19-2.5 added to ceftriaxone or ciprofloxacin; Figure 5
Protocol: Mononuclear cells (MNC) were isolated from heparinized blood samples obtained from healthy donors as described previously [1, 24]. […] For stimulation, 200 μL MNC (1 × 10^6 cells) in RPMI medium supplemented with PS/Glu2% (penicillin/streptomycin/glutamine, Biochrome, Berlin, Germany) plus AB serum (4%) was transferred into the wells of a 96-well culture plate.
The formulations to be tested for stimulation were preincubated for 30 min at 37 °C and added to the cultures at 20 μL per well. The cultures were incubated for 4 h at 37 °C with 5% CO2. Supernatants were collected after centrifugation of the culture plates for 10 min at 400× g and stored at 20 °C until immunological determination of tumor necrosis factor alpha (TNF-α), carried out with a sandwich enzyme-linked immunosorbent assay (ELISA) using a monoclonal antibody against TNF (BD Biosciences, Heidelberg, Germany) as described previously in detail [1]. In the case of the stimulation by the TNFα receptor, interleukin-8 in the supernatants was determined immunologically.

## CO/N=C(\C(=O)N[C@@H]1C(=O)N2C(C(=O)O)=C(CSc3nc(=O)c(=O)[nH]n3C)CS[C@H]12)c1csc(N)n1 [ceftriaxone]
  Influence on TNFα release from hMNC exposed to whole bacteria: only marginally influence the cytokine release
